The source of these data is US4670255A, “Hair tonic composition” (priority 1983, dated 1987).

This assay has as its system testosterone 5α-reductase. Kind of assay: Determination of 5α-reductase inhibitory activity (labelled testosterone conversion). It is filed as biochemical, rats. How it is done: Prostate gland cells of rats were crushed and a specimen of testosterone 5α-reductase was then prepared by separating microsome from the crushed liquid mixture. The conversion of testosterone to 5α-dihydrotestosterone by the use of the above-prepared enzyme specimen was monitored by radioisotopically labelled testosterone. The reaction mixture was extracted with ethyl acetate and the extract was developed twice by silica gel thin layer chromatography (solvent system, dichloromethane:cyclohexane:acetone=15:4:1). The amount of 5α-dihydrotestosterone were determined from the intensities of the radioactivity.
A 30 μl amount of a 0.05M phosphate buffer (pH=6.6) containing 0.1% of BSA (bovine serum albumin), 10 μl of an enzyme specimen, 8.5 pmol of labelled testosterone, 50 nmol of a reduced form of NADP (nicotinamide adenine dinucleotide phosphate), and 10 μl of a test sample were mixed (total amount=50 μl). The mixture was allowed to react at a temperature of 25° C. for 60 minutes.
After the completion of the reaction, the reaction mixture was extracted with ethyl acetate by adding 50 μl of ethyl acetate to the reaction mixture. The extract was developed in the same manner as mentioned above and the intensity of the radioisotope was measured by using a scintillation counter.
The above-mentioned determination was applied to the samples having various concentrations. The 5α-reductase inhibitory activity was obtained as a inhibitory rate (%) or a 50% inhibitory concentration.
Turning to `CCCCCC/C=C\CCCCCCCC(=O)O` [palmitoleic acid], the “5α-reductase inhibitory activity (in words)” value is “especially strong”.

As for `CCCCCCCCCCCCCCCC(=O)O` [palmitic acid], the “5α-reductase inhibitory activity (in words)” value is recorded as “especially strong”.

For the compound `CCCCCCCC/C=C\CCCCCCCC(=O)O` [oleic acid], the “5α-reductase inhibitory activity (in words)” value is “especially strong”.

As to `CCCCC/C=C\C/C=C\CCCCCCCC(=O)O` [linolic acid], the “5α-reductase inhibitory activity (in words)” value was “especially strong”.
